Values of other authors as cited in patent publication US10113000B2, “Combination therapies for B-cell lymphomas comprising administration of anti-CD20 antibody” (BIOGEN INC., priority 1998, dated 2018).

B1: IL-4: cytokine (protein, UniProt P05112 25-153, looked up)
Interleukin-4: HKCDITLQEIIKTLNSLTEQKTLCTELTVTDIFAASKNTTEKETFCRAATVLRQFYSHHEKDTRCLGATAQQFHRHKQLIRFLKRLDRNLWGLAGLNSCPVKEANQSTLENFLERLKTIMREKYSKCSS

How the values were obtained:
[1] = tested on: mononuclear cells from CLL patients; conditions: incubated for 24 hours
[2] = tested on: multiple myeloma (MM) patient plasma cells

| Molecule | CD20 expression by flow cytometry [1] | binding of cells to Rituximab ([2]; MM plasma cells, patient B-cells, normal donor B-cells) | concentration at which plateau of CD20 induction occurred ([2]; at 48 hours) [U/ml] | concentration at which CD20 upregulation is seen ([2]; plasma cells, dose dependent) [U/ml] |
| --- | --- | --- | --- | --- |
| GM-CSF: cytokine | significant up-regulation | – | – | – |
| TNF-alpha | significant up-regulation | – | – | – |
| gamma-interferon: cytokine | – | augments binding | 100 | 1 |
| B1 | significant up-regulation | – | – | – |
